From patent US8476408B2, “Unacylated ghrelin and analogs as therapeutic agents for vascular remodeling in diabetic patients and treatment of cardiovascular disease” (Alize Pharma SAS, priority 2008, dated 2013)
Where no end group is shown, it is not given here.

Legend:
CAC [1] = assay: Arterial specification of recovered human CAC (Q-RT-PCR of Ephrin B2, Notch1, Notch4, EphB4); format: in vivo; conditions: cells from treated patients cultured with IL-3; FIG. 3D
Experimental: (§1) RNA isolation and quantitative real-time PCR—CAC from diabetic patients, healthy subjects and mice treated with UAG or saline were cultured in EGM-2 medium. Human arterial and venous cells were used as a positive controls. mRNA quantification was performed by Q-RT-PCR, as previously described (Ref. 24). The relative expression of Ephrin B2, Notch1, Notch4 and EphB4 were calculated by using comparative threshold cycle methods. The human and murine primer sequences used were described (Refs. 25, 26).

CAC membranes = assay: Competition binding with [125I-Tyr4]-UAG on CAC membranes; design: species or system human; conditions: 100 nM unlabelled competitor, radioligand 0.25 nM; FIG. 5A
Text: The specific binding of [^125I-Tyr^4]-UAG (calculated as difference between binding in the absence, control, and in the presence of UAG) represented about 75% of the control value (P<0.001) and was detected either on fresh (0.25 and 0.26 fmol) or frozen-thawed (0.20 and 0.33 fmol) CAC membranes from two different cell preparations.

GHSR-1a = GHSR-1a (Homo sapiens, UniProt Q92847); conditions: cited from earlier work
CAC [2] = assay: Arterial commitment of CAC recovered from treated mice (Q-RT-PCR); format: in vivo; conditions: CAC from UAG-challenged mice cultured with IL-3; FIG. 4D
Experimental: as §1
Isolation and Culture of CAC from C57BU6J, C57BL/6J ob/ob mice and NOD/SCID mice—6 weeks old C57BL/6J (wt) and ob/ob mice, 7 and 17 weeks old NOD/SCID mice were purchased from Charles River Lab (Lecco, Italy). Animals were anesthetized by intraperitoneal injection with Avertin (100 mg/50ml ip). Blood samples were drawn from left ventricular, as described by Hoff (Ref. 27). Peripheral blood MNC were isolated by Ficoll density-gradient centrifugation. Recovered cells were washed twice Isolated cells were resuspended and were cultured on 20 μg/ml fibronectin-coated dishes in EGM-2 BulletKit Medium. In selected experiments, the isolated CAC were cultured in EBM-2 medium supplemented with 10 ng/ml of IL-3.

cardiomyocytes = conditions: Ref. 8; cited from earlier work
CAC [3] = assay: Matrigel-plug assay of de novo vessel formation by CAC from treated diabetic patients; format: in vivo, SCID mice
Experimental: Matrigel-plug assay—For murine angiogenesis assay, untreated or UAG-treated CAC, obtained from type 2 diabetic patients, were counted and resuspended in DMEM (4×10^6 in 250 μL DMEM). Cells were chilled in ice, labelled with fluorescent dye carboxyfluorescein diacetate succinimidyl ester (CSFE, Molecular Probes), added to 250 μL Matrigel containing of IL-3 (100 ng/ml) at 4° C., and injected sc. in the abdominal paramedian region of 7 week old NOD/SCID mice (5 mice per group). After 15 days, mice were killed and Matrigel plugs were recovered, fixed in 10% buffered formalin and embedded in paraffin for immunohistochemistry.
Immunohistochemistry and immunofluorescence—For immunohistochemistry, sections from paraffin-embedded blocks of Matrigel plugs were collected onto poly-lysine-coated slides. Endogenous peroxidase activity was blocked with 6% H2O2 for 8 minutes at room temperature. To detect cells labelled with fluorescent dye CSFE, anti-Fluorescein/Oregon Green polyclonal Abs (Molecular Probes) were applied to slides overnight at 4° C. […] The percentage of positive cells was counted in 4 non-sequential sections for each experiment at ×40 magnification. […] The number of MHC II or HLA I positive vessels was determined by counting 10 randomly selected fields in three different samples.

CAC [4] = assay: CAC senescence (acidic β-gal activity), cultured CAC; format: cell-based, human; conditions: FIG. 2A
Experimental: (§2) Peripheral-blood mononuclear cells (PB-MNC) isolated by Fycoll Histopaque 1077 (Sigma) were resuspended in 20% FBS 199 Medium and plated on fibronectin-coated dishes (Biocoat, Becton Dickinson Labware) as described by Hill et al. (Ref. 19). Human UAG studies were performed on CAC recovered from normal donors and diabetic patients. The purity of sorted cells was assessed by FACS analysis (Ref. 20). For experiments, the isolated CAC were cultured under 5% CO2 at 37° C. for 4 days on 20 μg/ml fibronectin-coated dishes in EGM-2 medium containing 10% FBS, hydrocortisone, human Fibroblast Growth Factor, Vascular Endothelial Growth Factor, Insulin Growth Factor 1, ascorbic acid, human Epidermal Growth Factor, gentamicin and amphotericin-B (Cambrex, Walkersville, Md., USA) alone or in combination with 1 μM UAG and 1.2 mg/ml AGE. In selected experiments, isolated CAC were cultured in EBM-2 medium (Cambrex, Walkersville, Md., USA) supplemented with 10 ng/ml of IL-3. FACS was used to analyze their phenotype (anti-CD45, anti-CD31, anti-CD105, anti-CD14 antibodies were used) (Ref. 22).
CAC Senescence—Senescence was evaluated by acidic β-gal activity on CAC recovered from normal subjects cultured in EGM2 medium for 4 days with UAG or AGE+UAG and saline- or UAG-treated diabetic patients (Ref. 22). […] SA-β-gal-positive cells were counted manually by 3 independent investigators.

CAC [5] = assay: Expansion (S phase) of CAC recovered from treated subjects, cultured with IL-3; format: in vivo, human; conditions: cells from treated diabetic patients cultured with IL-3; FIG. 3C
Experimental: as §2, with “FACS was used to analyze their phenotype (anti-CD45, anti-CD31, anti-CD105, anti-CD14 antibodies were used) (Ref. 22).” left out
Flow Cytometry—To analyze CAC cell-cycle progression, cells recovered from diabetic, healthy subjects, NOD/SCID, ob/ob and wt mice, were cultured in EBM-2 supplemented with IL-3 (10 ng/ml), FACS analysis was performed as previously described (Ref. 20). Cell surface molecules were evaluated by flow cytometry as previously described (Ref. 24). Frequency of marker-positive cells is expressed as mean±standard deviation (SD).

GHSR-1a, sequence (Q92847 whole entry): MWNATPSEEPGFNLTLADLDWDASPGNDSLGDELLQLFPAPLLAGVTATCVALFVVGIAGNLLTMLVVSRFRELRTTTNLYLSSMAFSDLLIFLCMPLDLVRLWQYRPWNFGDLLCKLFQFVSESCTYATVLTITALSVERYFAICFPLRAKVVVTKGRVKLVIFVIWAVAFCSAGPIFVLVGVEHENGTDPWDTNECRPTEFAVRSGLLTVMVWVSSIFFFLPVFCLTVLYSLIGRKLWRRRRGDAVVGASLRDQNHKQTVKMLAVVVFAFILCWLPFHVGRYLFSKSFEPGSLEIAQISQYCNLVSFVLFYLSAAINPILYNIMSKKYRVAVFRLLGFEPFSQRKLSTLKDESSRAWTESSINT

For “1-NH2Gly-Ser-Ser-Phe-Leu-Ser-Pro-Glu-His-Gln-Arg-Val-Gln-Gln-Arg-Lys-Glu-Ser-Lys-Lys-Pro-Pro-Ala-Lys-Leu-Gln-Pro-Arg-28 (GSSFLSPEHQRVQQRKESKKPPAKLQPR; ends and bridges not checked; listed as Homo sapiens) [UAG]”, the “arterial specification (Ephrin B2, Notch1, Notch4 vs EphB4)” value (CAC [1]) is listed as “able to undergo arterial specification”, the “inhibition of binding of [125I-Tyr4]-UAG to CAC membranes” value (CAC membranes) is listed as “inhibited” and the “binding to GHSR-1a” value (GHSR-1a) is listed as “fails to bind GHSR-1a”. For the same substance, the “arterial commitment of recovered CAC” value (CAC [2]) was “acquire arterial commitment”, the experimentally-induced cell death (cardiomyocytes) was “inhibit experimentally-induced cell death” and the “formation of functional vessels by labelled CAC” value (CAC [3]; CAC from UAG-treated diabetic patients, Matrigel plugs with IL-3, 15 days, FIG. 4E) was “formed functional vessels”. For the same substance, the “origin of neo-vessels (human HLA Class I vs mouse MHC II)” value (CAC [3]; immunofluorescence of Matrigel plugs, FIG. 4F) was “majority of vessels are lined by human HLA Class I positive cells”, the “number of senescent cells (SA-β-gal activity)” value (CAC [4]; CAC cultured with UAG alone) was “reduce the number of senescent cells” and the “number of SA-β-gal positive cells” value (CAC [4]; UAG added to AGE-cultured CAC) was “significant reduction in the number of SA-β-gal positive cells”. The “cell expansion of recovered cells (S phase)” value (CAC [5]) was “underwent cell expansion”.
